From US12448371B2, “Inhibitor compounds” (Cincera Therapeutics Pty Ltd, priority 2019, dated 2025)
Counter-ions that a name gives are not always drawn.

Biological target: T1, Des1 (h) (Homo sapiens, UniProt O15121)
T1 construct: endogenous in cells; host or cells: parental Jurkat cells
T1 sequence (O15121 1-323): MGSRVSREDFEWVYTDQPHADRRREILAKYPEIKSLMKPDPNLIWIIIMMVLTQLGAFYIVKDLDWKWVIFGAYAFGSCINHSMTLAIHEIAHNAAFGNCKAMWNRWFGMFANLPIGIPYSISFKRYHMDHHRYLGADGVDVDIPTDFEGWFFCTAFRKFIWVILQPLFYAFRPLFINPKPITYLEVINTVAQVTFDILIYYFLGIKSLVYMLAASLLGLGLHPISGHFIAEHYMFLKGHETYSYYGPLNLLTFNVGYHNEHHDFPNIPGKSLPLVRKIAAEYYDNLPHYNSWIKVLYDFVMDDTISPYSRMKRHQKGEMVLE
Assay: Measurement of Dihydroceramide Desaturase-1 (Des-1) activity in intact Jurkat cells labeled with DhCer-C6-NBD (HPLC)
Assay type: cell-based
Conditions: for inhibition at 1 µM / % inhibition of Des1 at 0.1 μM / % inhibition of Des1 at 10 μM: Jurkat cells; for IC50: intact Jurkat cells, given as concentration range, or <X / >X if measured at one concentration X only, read-out: Des1 (h) Jurkat IC50
Experimental: Measurement of Dihydroceramide Desaturase-1 (Des-1) Activity
Compounds were assessed for Des-1 inhibitory activity. Measurement of Des1 activity was performed by HPLC using intact Jurkat cells labeled with DhCer-C6-NBD as described previously (Munoz-Olaya, J. M. et al. ChemMedChem 2008, 3, 946-953) with modifications to enhance sensitivity and reproducibility. These modifications included the use of parental Jurkat cells, 0.5% serum in the culture media, and cell harvesting via centrifugation at 500×g to maximise ceramide extraction. Extracted samples (50 ul) were analysed on a Waters HPLC coupled to a fluorescence detector using a 30 cm C18 reverse-phase column eluted with 1 ml/min 20% H2O and 80% acetonitrile, both with a 0.1% of trifluoroacetic acid. NBD-labelled substrate and product were quantitated with an excitation and emission wavelengths of 465 nm and 530 nm, respectively.

SMILES	IC50 [nM]	other results
O=C(NCC(O)CO)c1ccc(Nc2cnn(-c3ccc(C(F)(F)F)cn3)c2)cn1 (racemic) [Compound 104, rac-N-(2,3-Dihydroxypropyl)-5-((1-(5-(trifluoromethyl)pyridin-2-yl)-1H-pyrazol-4-yl)amino)picolinamide]	> 1000	inhibition at 1 µM: 26%
O=S(=O)(NCC(O)CO)c1ccc(Nc2ncc(-c3ccc(C(F)(F)F)cc3)o2)cn1 (racemic) [Example 16, rac-N-(2,3-Dihydroxypropyl)-5-((5-[4-(trifluoromethyl)phenyl]-1,3-oxazol-2-yl)amino)pyridine-2-sulfonamide]	> 1000	inhibition at 1 µM: 42%
O=C(NC[C@@H](O)CO)c1ccc(Nc2ncc(-c3ccc(C(F)(F)F)cn3)o2)cn1 [Compound 95, (R)—N-(2,3-dihydroxypropyl)-5-((5-(5-(trifluoromethyl)pyridin-2-yl)oxazol-2-yl)amino)picolinamide]	10 to 100	
Cc1nc(Nc2ccc(C(=O)NC[C@@H](O)CO)nc2)oc1-c1ccc(C(F)(F)F)cc1 [Compound 96, (R)—N-(2,3-dihydroxypropyl)-5-((4-methyl-5-(4-(trifluoromethyl)phenyl)oxazol-2-yl)amino)picolinamide]	< 1000	
O=C(NC[C@@H](O)CO)c1ccc(Nc2ncc(-c3ccc(F)c(F)c3)o2)cn1 [Compound 97, (R)-5-((5-(3,4-Difluorophenyl)oxazol-2-yl)amino)-N-(2,3-dihydroxypropyl)picolinamide]		% inhibition of Des1 at 0.1 μM: 55%
O=C(NC[C@@H](O)CO)c1ccc(Nc2ncc(-c3ccc(F)cc3)o2)cn1 [Compound 98, (R)—N-(2,3-dihydroxypropyl)-5-((5-(4-fluorophenyl)oxazol-2-yl)amino)picolinamide]		% inhibition of Des1 at 0.1 μM: 70%
Oc1ccc(Nc2ncc(-c3ccc(OC(F)(F)F)cc3)o2)nc1 [Compound 105, 6-((5-(4-(Trifluoromethoxy)phenyl)oxazol-2-yl)amino)pyridin-3-ol]	< 1000	
Cn1nc(Nc2cnc(/C(N)=N/O)cn2)cc1-c1ccc(C(F)(F)F)cn1 [Compound 110, N′-Hydroxy-5-((1-methyl-5-(5-(trifluoromethyl)pyridin-2-yl)-1H-pyrazol-3-yl)amino)pyrazine-2-carboximidamide]	> 1000	inhibition at 1 µM: 31%
N/C(=N/O)c1ccc(Nc2ncc(-c3ccc(F)cn3)o2)cn1 [Compound 117, 5-((5-(5-Fluoropyridin-2-yl)oxazol-2-yl)amino)-N′-hydroxypicolinimidamide]	> 1000	inhibition at 1 µM: 36%
N/C(=N\O)c1ccc(Nc2ncc(-c3ccc(C(F)(F)F)nn3)o2)cn1 [Compound 119, N′-Hydroxy-5-((5-(6-(trifluoromethyl)pyridazin-3-yl)oxazol-2-yl)amino)picolinimidamide]	> 1000	inhibition at 1 µM: 44%
N/C(=N\O)c1ccc(Nc2ncc(-c3ccc(C(F)(F)F)cc3)o2)nc1 [Example 3, N′-Hydroxy-6-((5-(4-(trifluoromethyl)phenyl)oxazol-2-yl)amino)nicotinimidamide hydrochloride]	100 to 1000	
N=C(NO)c1ccc(Nc2nnc(-c3ccc(C(F)(F)F)cc3)o2)cn1 [Example 5, 5-((5-[4-(Trifluoromethyl)phenyl]-1,3,4-oxadiazol-2-yl)amino)-N-hydroxy-pyridine-2-carboximidamide]	100 to 1000	
N=C(NO)c1ccc(Nc2nnc(-c3ccc(C(F)(F)F)c(F)c3)o2)cn1 [Example 6, 5-((5-[3-Fluoro-4-(trifluoromethyl)phenyl]-1,3,4-oxadiazol-2-yl)amino)-N-hydroxypyridine-2-carboximidamide]	100 to 1000	
O=c1cc(Nc2nnc(-c3ccc(C(F)(F)F)cc3)o2)ccn1O [Example 7, 1-Hydroxy-4-((5-[4-(trifluoromethyl)phenyl]-1,3,4-oxadiazol-2-yl)amino)-1,2-dihydropyridin-2-one]	< 1000	
O=C(NO)c1ncc(Nc2nc(-c3ccc(C(F)(F)F)cc3)co2)cn1 [Example 12, N-Hydroxy-5-((4-[4-(trifluoromethyl)phenyl]-1,3-oxazol-2-yl)amino)pyrimidine-2-carboxamide]	1000 to 10000	
O=C(NO)c1ccc(Nc2nc(-c3ccc(C(F)(F)F)cc3)co2)nn1 [Example 13, N-Hydroxy-6-((4-(4-(trifluoromethyl)phenyl)oxazol-2-yl)amino)pyridazine-3-carboxamide]	1000 to 10000	
CN(O)S(=O)(=O)c1ccc(Nc2ncc(-c3ccc(C(F)(F)F)cc3)o2)cn1 [Example 15, N-Hydroxy-N-methyl-5-((5-[4-(trifluoromethyl)phenyl]-1,3-oxazol-2-yl)amino) pyridine-2-sulfonamide]	> 1000	inhibition at 1 µM: 46%
Oc1ccc(Nc2ncc(-c3ccc(C(F)(F)F)cc3)o2)nc1 [Example 18, 6-((5-(4-(Trifluoromethyl)phenyl)oxazol-2-yl)amino)pyridin-3-ol]	< 1000	
Cc1cc(Nc2ncc(-c3ccc(C(F)(F)F)cc3)o2)cnc1C(=O)N(C)O [Example 21, N-Hydroxy-N,3-dimethyl-5-((5-(4-(trifluoromethyl)phenyl)oxazol-2-yl)amino)picolinamide]	> 1000	inhibition at 1 µM: 38%
O=C(c1ccc(Nc2ncc(-c3ccc(C(F)(F)F)cc3)o2)cn1)N(O)CCO [Example 22, N-Hydroxy-N-(2-hydroxyethyl)-5-((5-(4-(trifluoromethyl)phenyl)oxazol-2-yl)amino)picolinamide]		% inhibition of Des1 at 10 μM: 81%

More lines, main results first:

IC50 [nM]	SMILES	other results
> 1000	N=C(NCC(O)CO)c1ccc(Nc2ncc(-c3ccc(C(F)(F)F)cc3)o2)cn1 (racemic) [Compound 91, rac-N-(2,3-dihydroxypropyl)-5-((5-(4-(trifluoromethyl)phenyl)oxazol-2-yl)amino)picolinimidamide]	inhibition at 1 µM: 44%
1 to 10	O=C(NCC(O)CO)c1ccc(Nc2ncc(-c3ccc(C(F)(F)F)cc3)o2)cn1 (racemic) [Example 17, rac-N-(2,3-Dihydroxypropyl)-5-((5-[4-(trifluoromethyl)phenyl]-1,3-oxazol-2-yl)amino) picolinamide]	
100 to 1000	NNC(=O)c1ccc(Nc2ncc(-c3ccc(C(F)(F)F)cc3)o2)cn1 [Compound 92, 5-((5-(4-(Trifluoromethyl)phenyl)oxazol-2-yl)amino)picolinohydrazide]	
< 1000	O=CNNC(=O)c1ccc(Nc2ncc(-c3ccc(C(F)(F)F)cc3)o2)cn1 [Compound 93, N′-formyl-5-((5-(4-(trifluoromethyl)phenyl)oxazol-2-yl)amino)picolinohydrazide]	
> 1000	CNNC(=O)c1ccc(Nc2ncc(-c3ccc(C(F)(F)F)cc3)o2)cn1 [Compound 94, N′-Methyl-5-((5-(4-(trifluoromethyl)phenyl)oxazol-2-yl)amino)picolinohydrazide]	inhibition at 1 µM: 30%
< 1000	N/C(=N\O)c1ccc(Nc2ncc(-c3ccc(Cl)cc3)o2)cn1 [Compound 100, 5-((5-(4-Chlorophenyl)oxazol-2-yl)amino)-N′-hydroxypicolinimidamide]	
< 1000	N/C(=N\O)c1cnc(Nc2ncc(-c3ccc(Cl)cc3)o2)cn1 [Compound 101, 5-((5-(4-Chlorophenyl)oxazol-2-yl)amino)-N′-hydroxypyrazine-2-carboximidamide]	
100 to 1000	O=C(NO)c1ccc(Nc2ncc(-c3ccc(Cl)cc3)o2)cn1 [Example 1, 5-((5-(4-Chlorophenyl)oxazol-2-yl)amino)-N-hydroxypicolinamide]	
100 to 1000	O=C(NO)c1ccc(Nc2ncc(-c3ccc(C(F)(F)F)cc3)o2)cn1 [Example 2, N-Hydroxy-5-((5-(4-(trifluoromethyl)phenyl)oxazol-2-yl)amino)picolinamide]	
1000 to 10000	ONc1ccc(Nc2ncc(-c3ccc(C(F)(F)F)cc3)o2)cn1 [Example 4, N-(6-(Hydroxyamino)pyridin-3-yl)-5-(4-(trifluoromethyl)phenyl)oxazol-2-amine]	
> 10000	O=C(NO)c1ncc(Nc2nc(-c3ccc(Cl)cc3)cs2)cn1 [Example 9, 5-([4-(4-Chlorophenyl)-1,3-thiazol-2-yl]amino)-N-hydroxypyrimidine-2-carboxamide]	% inhibition of Des1 at 10 μM: 26%
1000 to 10000	O=C(NO)c1ncc(Nc2ncc(-c3ccc(C(F)(F)F)cc3)o2)cn1 [Example 10]	
100 to 1000	O=C(NO)c1ccc(Nc2ncc(-c3ccc(C(F)(F)F)cc3)o2)nn1 [Example 11, N-Hydroxy-6-((5-[4-(trifluoromethyl)phenyl]-1,3-oxazol-2-yl)amino)pyridazine-3-carboxamide]	
100 to 1000	O=C(NO)c1ccc(Nc2nc(-c3ccc(C(F)(F)F)cc3)co2)cn1 [Example 14, N-Hydroxy-5-((4-[4-(trifluoromethyl)phenyl]-1,3-oxazol-2-yl)amino)picolinamide]	
1000 to 10000	O=C(NCCO)c1ccc(Nc2ncc(-c3ccc(C(F)(F)F)cc3)o2)cn1 [Example 19, N-(2-Hydroxyethyl)-5-((5-(4-(trifluoromethyl)phenyl)oxazol-2-yl)amino)picolinamide]	
